Measured values: patent publication US11958812B2, “3, 5-disubstituted pyridine and 3, 5-disubstituted pyridazine derivatives and pharmaceutical use of same” (MITSUBISHI TANABE PHARMA CORPORATION, priority 2018, dated 2024)
pIC50: −log10 of the molar value.

Experiments:
human recombinant ATX = human recombinant ATX (Homo sapiens, UniProt Q13822); test: Enzyme inhibition test (choline release from LPC, Amplex UltraRed fluorescence); assay type: biochemical; conditions: 200 μM LPC substrate, 1 hr at room temperature, read-out: Experimental Example 1 human ATX IC50
Procedure, shortened: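 Recombinant human ATX (enzyme solution 0.4 ng/µL) acted on a mix of 200 µM LPC, Amplex UltraRed, peroxidase and choline oxidase in Tris pH 8.0 buffer with BSA and 0.0025% Triton X-100, 1 h at room temperature. Choline was read by fluorescence (Ex 525/Em 598 nm) against a choline chloride standard. IC50 came from % inhibition relative to enzyme-free and inhibitor-free controls.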

[1] = tested on: bleomycin (BLM)-induced lung fibrosis model; test: Mouse bleomycin-induced lung fibrosis model: fibrosis markers in plasma, BALF and lung; assay type: in vivo, female C57BL/6J mouse; conditions: 30 mg/kg, bid, oral, 14 days
Method: [Consideration of Action of ATX Inhibitor on Mouse Bleomycin-Induced Lung Fibrosis Model]
The effectiveness of an ATX inhibitor (Example 5, hereinafter to be referred to as example 5 in the Figures) on bleomycin (BLM)-induced lung fibrosis model was evaluated using, as an index, variation of each fibrosis index marker in the plasma or BALF, or fibrosis related genes in the lung.
8-Week-old mice were grouped in the group constitution shown in Table 24 using a simulation method such that the body weight would become uniform before the previous day of bleomycin administration (SOP/STA/RA-0003). The mice were anesthetized with isoflurane, 0.5 mg/mL of bleomycin solution was intratracheally administered at 50 μL/head to produce a bleomycin-induced lung fibrosis model (1.25 U/kg). In the saline group, physiological saline was administered instead of bleomycin. The ATX inhibitor (Example 5) was orally administered two times per day from the day of bleomycin administration. In addition, the body weight was measured once per day from the day of grouping.
One equivalent of a mixture of 1N NaOH and 0.5% CMC solution (100 μL in total) relative to the ATX inhibitor (Example 5) was added, 10 zirconia beads (φ3 mm) were added, and they were pulverized using a mixer mill MM400 (frequency 28.01/min, pulverization time 10 min). 0.5% CMC was added to […] to give a suspension and the suspension was sonicated for 10 min. The administration dose volume was 10 mL/Kg and the administration dose amount was 30 mg/kg. Administration was performed twice per day and the initial administration was performed 30 min before BLM administration.
animal species: female C57BL/6J mouse, supply company: CHARLES RIVER LABORATORIES JAPAN, INC., number of animals used: 10 per group (age at arrival: 7 weeks old).
At 14 days from the bleomycin administration, plasma, BALF and lung tissue were collected. BALF was recovered and the concentration of LPA (18:2) in BALF (FIG. 6) was measured. After blood was collected from the abdominal vena cava, whole blood was anticoagulated using heparin and centrifuged to collect plasma. Then, the ATX activity (FIG. 5) and SP-D (FIG. 1) in the plasma were measured. Furthermore, the chest was opened and whole lung tissue was collected, and gene expression of each of Col1a1 (FIG. 2), CTGF (FIG. 3) and IL-6 (FIG. 4) in the lung was analyzed. For the gene expression analysis, mRNA was extracted from the lung tissue using TRIzol, reverse transcription was performed using a kit of Life technologies, and qPCR was performed using Tagman probe.
An organic solvent and LPA (17:0) solution as an internal standard substance were added to the collected BALF (200 μL), and the mixture was dried to solidness under reduced pressure at 35° C. […] The analysis sample was separated by reversed-phase column and LPA (18:2) was detected by the QTRAP6500 system (ABSciex). In addition, LPA (18:2) synthesis reference standard was added to PBS buffer used for recovery of BALF and compared with the analytical curve sample that underwent a similar pre-treatment, whereby the concentration of LPA (18:2) contained in BALF was calculated (FIG. 6).
The difference between the saline group and the BLM administration group and the difference between the BLM administration group and the compound administration group were analyzed by the Student's t-test wherein the significance level was 5% on both sides. […]

For `COc1ccc(-c2cnnc(OC[C@H]3CC[C@H](C(F)(F)F)CC3)c2)nc1[C@H]1C[C@@H]1C(=O)O` [Example 5, (1S,2S)-2-[3-methoxy-6-(6-{[trans-4-(trifluoromethyl)cyclohexyl]methoxy}pyridazin-4-yl)pyridin-2-yl]cyclopropanecarboxylic Acid], the pIC50 (human recombinant ATX) was 9.00, the “SP-D in the plasma” value ([1]; FIG. 1) was “suppressed” and the “production of LPA (C18:2) in BALF” value ([1]; FIG. 6) was “suppressive action”. The “Col1a1 gene expression in the lung” value ([1]; mRNA in lung tissue, FIG. 2) was “expression suppressive action”, the “CTGF gene expression in the lung” value ([1]; mRNA in lung tissue, FIG. 3) was “expression suppressive action” and the “IL-6 gene expression in the lung” value ([1]; mRNA in lung tissue, FIG. 4) was “expression suppressive action”.
